This is an account of results in patent publication US11345695B2, “Substituted nicotinimide inhibitors of BTK and their preparation and use in the treatment of cancer, inflammation and autoimmune disease” (GUANGZHOU INNOCARE PHARMA TECH CO., LTD., priority 2013, dated 2022).

A value given as a limit tells only on which side of the number the result lay.

For this test, the target named is BTK (Homo sapiens (Human), UniProt Q06187). In words: kinase-tagged phage / affinity bead competition binding screen (qPCR readout). To be noted: BTK versus SRC. On the technique in general: Quantitative PCR measures a nucleic acid by following its amplification.
Sequence of BTK (Q06187 whole entry): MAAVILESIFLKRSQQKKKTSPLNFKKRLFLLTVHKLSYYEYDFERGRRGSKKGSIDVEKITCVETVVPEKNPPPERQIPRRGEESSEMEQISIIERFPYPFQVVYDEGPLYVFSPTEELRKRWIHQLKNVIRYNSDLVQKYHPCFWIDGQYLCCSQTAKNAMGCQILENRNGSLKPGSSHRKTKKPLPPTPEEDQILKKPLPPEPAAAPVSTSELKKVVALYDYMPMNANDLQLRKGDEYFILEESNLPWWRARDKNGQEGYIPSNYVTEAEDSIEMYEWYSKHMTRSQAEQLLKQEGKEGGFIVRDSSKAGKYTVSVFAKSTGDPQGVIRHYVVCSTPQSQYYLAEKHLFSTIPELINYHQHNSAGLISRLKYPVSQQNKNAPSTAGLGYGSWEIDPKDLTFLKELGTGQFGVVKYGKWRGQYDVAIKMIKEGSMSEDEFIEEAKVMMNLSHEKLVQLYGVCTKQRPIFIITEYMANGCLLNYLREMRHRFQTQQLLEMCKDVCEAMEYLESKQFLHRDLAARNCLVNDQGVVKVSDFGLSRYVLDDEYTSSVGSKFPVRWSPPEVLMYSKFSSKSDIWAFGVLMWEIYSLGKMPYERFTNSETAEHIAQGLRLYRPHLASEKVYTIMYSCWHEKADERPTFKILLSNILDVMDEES

With `C=CC(=O)N1CCN(c2ccc(C(N)=O)c(-c3ccc(Oc4ccccc4)cc3)n2)CC1` [Example 5, 6-(4-acryloylpiperazin-1-yl)-2-(4-phenoxyphenyl)nicotinamide], the “Fold Difference” value is over 100x.
